Experimental data taken from ChEMBL document CHEMBL1268832, “Discovery of a potent tubulin polymerization inhibitor: synthesis and evaluation of water-soluble prodrugs of benzophenone analog” (Bioorg Med Chem Lett, 2010).
Converted amounts (≈) assume the structure as drawn. The source made the active and inactive calls. No cut-off for these calls is given here.

Legend:
[1] = test system: HL-60; assay: Antiproliferative activity against human HL60 cells after 72 hrs by MTT assay; assay type: functional, cell-based; conditions: HL-60, 72 h
[2] = test system: CX-1; assay: Antitumor activity against human CX-1 cells xenografted in mouse assessed as tumor growth inhibition at 10 mg/kg, ip for every 4 days 4 doses; assay type: functional; set-up: scale not given: the % may be the effect or the level left; conditions: route intraperitoneal
[3] = test system: Mus musculus; assay: Toxicity in human CX-1 cells xenografted in mouse assessed as chage in body weight at 10 mg/kg, ip for every 4 days 4 doses (Rbv = 24.5%); assay type: organism-based; set-up: dose 10 mg/kg, route intraperitoneal; conditions: in vivo, 96 h
[4] = test system: CX-1; assay: Antitumor activity against human CX-1 cells xenografted in mouse assessed as tumor growth inhibition at 5 mg/kg, ip for every 4 days 4 doses; assay type: functional; set-up: scale not given: the % may be the effect or the level left; conditions: route intraperitoneal
[5] = test system: Mus musculus; assay: Toxicity in human CX-1 cells xenografted in mouse assessed as chage in body weight at 5 mg/kg, ip for every 4 days 4 doses (Rbv = 24.5%); assay type: organism-based; set-up: dose 5 mg/kg, route intraperitoneal; conditions: in vivo, 96 h
[6] = test system: CX-1; assay: Antitumor activity against human CX-1 cells xenografted in mouse assessed as mouse survival at 5 mg/kg, ip for every 4 days 4 doses; assay type: functional, organism-based; set-up: dose 5 mg/kg
[7] = test system: HCT-116; assay: Antitumor activity against human HCT116 cells xenografted in mouse assessed as tumor growth inhibition at 5 mg/kg, ip for every 4 days 4 doses; assay type: functional; set-up: scale not given: the % may be the effect or the level left; conditions: route intraperitoneal
[8] = test system: HCT-116; assay: Antitumor activity against human HCT116 cells xenografted in mouse assessed as mouse survival at 5 mg/kg, ip for every 4 days 4 doses; assay type: functional, organism-based; set-up: dose 5 mg/kg
[9] = test system: Mus musculus; assay: Toxicity in human HCT116 cells xenografted in mouse assessed as chage in body weight at 5 mg/kg, ip for every 4 days 4 doses (Rbv = -5.7%); assay type: organism-based, HCT-116; set-up: dose 5 mg/kg, route intraperitoneal; conditions: in vivo, 96 h
[10] = test system: MDA-MB-231; assay: Antiproliferative activity against P-gp expressing multidrug-resistant human MDA-MB-231 cells after 72 hrs by MTT assay; assay type: functional, cell-based; conditions: MDA-MB-231, 72 h
[11] = Metabolic stability in dog liver microsomes assessed as compound remaining at 5 uM after 1 hr; assay type: ADME, Canis lupus familiaris, Microsome; conditions: read-out: Stability
[12] = Metabolic stability in human liver microsomes assessed as compound remaining at 5 uM after 1 hr; assay type: ADME, Microsome; conditions: read-out: Stability
[13] = Half life in Sprague-Dawley rat at 10 mg/kg, iv; assay type: ADME, organism-based; set-up: dose 10 mg/kg, route intravenous; conditions: in vivo
[14] = Aqueous solubility of the compound in deionized water; assay type: physicochemical
[15] = test system: CX-1; assay: Antitumor activity against human CX-1 cells xenografted in mouse assessed as mouse survival at 10 mg/kg, ip for every 4 days 4 doses; assay type: functional, organism-based; set-up: dose 10 mg/kg
[16] = test system: HCT-116; assay: Antitumor activity against human HCT116 cells xenografted in mouse assessed as mouse survival at 10 mg/kg, ip for every 4 days 4 doses; assay type: functional, organism-based; set-up: dose 10 mg/kg
[17] = test system: Mus musculus; assay: Toxicity in human HCT116 cells xenografted in mouse assessed as chage in body weight at 10 mg/kg, ip for every 4 days 4 doses (Rbv = -5.7%); assay type: organism-based, HCT-116; set-up: dose 10 mg/kg, route intraperitoneal; conditions: in vivo, 96 h
[18] = test system: HCT-116; assay: Antitumor activity against human HCT116 cells xenografted in mouse assessed as tumor growth inhibition at 10 mg/kg, ip for every 4 days 4 doses; assay type: functional; set-up: scale not given: the % may be the effect or the level left; conditions: route intraperitoneal

SMILES: COc1cc(C(=O)c2ccc(-c3csc(NC(=O)[C@H](N)Cc4ccc(F)cc4)n3)cc2-n2cncn2)cc(OC)c1OC
- IC50 [1]: 740 nM

SMILES: COc1cc(C(=O)c2ccc(-c3csc(NC(=O)[C@@H](N)CC4CCCCC4)n3)cc2-n2cncn2)cc(OC)c1OC
- IC50 [1]: 86 nM

SMILES: COc1cc(C(=O)c2ccc(-c3csc(NC(=O)[C@H](N)c4ccccc4)n3)cc2-n2cncn2)cc(OC)c1OC
- IC50 [1]: 280 nM

SMILES: COc1cc(C(=O)c2ccc(-c3csc(NC(=O)[C@@H](N)CO)n3)cc2-n2cncn2)cc(OC)c1OC
- IC50 [1]: 81 nM

SMILES: COc1cc(C(=O)c2ccc(-c3csc(NC(=O)CN)n3)cc2-n2cncn2)cc(OC)c1OC
- Activity [2]: 44%
- Activity [3]: 21%
- Activity [4]: 40%
- Activity [5]: 22.2%
- Activity [6]: Active
- IC50 [1]: 27 nM

SMILES: COc1cc(C(=O)c2ccc(-c3csc(NC(=O)[C@H](N)Cc4ccc(Cl)cc4)n3)cc2-n2cncn2)cc(OC)c1OC
- IC50 [1]: 920 nM

SMILES: COc1cc(C(=O)c2ccc(-c3csc(NC(=O)[C@H](C)N)n3)cc2-n2cncn2)cc(OC)c1OC
- Activity [7]: 62%
- Activity [8]: Active
- IC50 [1]: 13 nM
- Activity [9]: -1.7%

SMILES: COc1cc(C(=O)c2ccc(-c3csc(N)n3)cc2-n2cncn2)cc(OC)c1OC
- IC50 [10]: 9.8 nM
- remaining at 1 h, 5 µM [11]: 60%
- remaining at 1 h, 5 µM [12]: 60%
- half-life [13]: 1.65 min
- solubility [14]: < 100 µg/mL

SMILES: COc1cc(C(=O)c2ccc(-c3csc(NC(=O)[C@@H]4CCCN4)n3)cc2-n2cncn2)cc(OC)c1OC
- IC50 [1]: 98 nM

SMILES: COc1cc(C(=O)c2ccc(-c3csc(NC(=O)[C@@H](N)Cc4ccccc4)n3)cc2-n2cncn2)cc(OC)c1OC
- Activity [2]: 43%
- Activity [3]: 24.5%
- Activity [4]: 21%
- Activity [15]: Active
- Activity [5]: 28.9%
- Activity [6]: Active
- IC50 [1]: 89 nM

SMILES: COc1cc(C(=O)c2ccc(-c3csc(NC(=O)[C@H](N)Cc4ccc(C(F)(F)F)cc4)n3)cc2-n2cncn2)cc(OC)c1OC
- IC50 [1]: > 2000 nM

SMILES: COc1cc(C(=O)c2ccc(-c3csc(NC(=O)[C@@H](N)CC(C)C)n3)cc2-n2cncn2)cc(OC)c1OC
- IC50 [1]: 76 nM

SMILES: COc1ccc(/C=C\c2cc(OC)c(OC)c(OC)c2)cc1N
- IC50 [10]: 45 nM

SMILES: COc1cc(C(=O)c2ccc(-c3csc(NC(=O)C(C)(C)N)n3)cc2-n2cncn2)cc(OC)c1OC
- Activity [2]: 20%
- Activity [3]: 26.7%
- Activity [4]: 23%
- Activity [15]: Active
- Activity [5]: 24.8%
- Activity [6]: Active
- IC50 [1]: 5 nM

SMILES: COc1cc(C(=O)c2ccc(-c3csc(NC(=O)[C@@H](N)C(C)C)n3)cc2-n2cncn2)cc(OC)c1OC
- Activity [2]: 64%
- Activity [3]: 14.7%
- Activity [4]: 28%
- remaining at 1 h, 5 µM [11]: 10%
- Activity [16]: Active
- Activity [17]: 5.1%
- Activity [15]: Active
- Activity [18]: 88%
- Activity [5]: 25.7%
- remaining at 1 h, 5 µM [12]: 15%
- half-life [13]: 0.41 min
- Activity [6]: Active
- IC50 [1]: 110 nM
- solubility [14]: 930 µg/mL (≈ 1730 µM)
